# Source: patent US7208517B1, “Endothelin antagonists” (Abbott Labortories, priority 1994, dated 2007)
# Target: T1, ETA receptor in MMQ cells (rET-A) (Rattus norvegicus, UniProt P26684)
# T1 construct: endogenous in cells; host or cells: MMQ rat pituitary cells (membranes)
# T1 sequence (P26684 21-426): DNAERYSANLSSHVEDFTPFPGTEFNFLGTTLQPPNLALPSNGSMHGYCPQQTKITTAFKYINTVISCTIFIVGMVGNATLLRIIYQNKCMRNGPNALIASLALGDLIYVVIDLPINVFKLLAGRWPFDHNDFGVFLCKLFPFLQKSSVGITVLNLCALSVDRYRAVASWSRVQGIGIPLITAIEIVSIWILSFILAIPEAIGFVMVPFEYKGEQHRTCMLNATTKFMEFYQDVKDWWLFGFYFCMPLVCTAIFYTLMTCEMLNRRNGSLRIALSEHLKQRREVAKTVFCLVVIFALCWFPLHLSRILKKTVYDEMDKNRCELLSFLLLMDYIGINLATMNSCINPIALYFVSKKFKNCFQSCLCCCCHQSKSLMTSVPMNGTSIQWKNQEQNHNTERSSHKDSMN
# Assay: ETA/ETB selectivity: (125I)ET-1 competition binding, ETA assay in MMQ cell membranes (rET-A)
# Conditions: MMQ cell membranes; 0.1 nM (125I)ET-1; read-out: rET-A IC50
# Protocol: (§1) The mixture was centrifuged at 1000×g for 10 min. The supernatant was collected and centrifuged at 60,000×g for 60 min. The precipitate was resuspended in 20 mM Tris, pH 7.4 containing protease inhibitor and centrifuged again. The final membrane pellet was resuspended in 20 mM Tris, pH 7.4 containing protease inhibitors and stored at −80° C. until used. Protein content was determined by the Bio-Rad dye-binding protein assay.
# (§2) Binding assays were performed in 96-well microtiter plates pretreated with 0.1% BSA. […] After incubation, unbound ligands were separated from bound ligands by a vacuum filtration method using glass-fiber filter strips in PHD cell harvesters (Cambridge Technology, Inc., MA), washing the filter strips three times with saline (1 mL). Nonspecific binding was determined in the presence of 1 μM ET-1. IC50 values are calculated using an average of at least two separate determinations.
row,Compound,IC50 [nM]
1,CCCCN(CCCC)C(=O)CN1CC(c2ccc3c(c2)OCO3)C(C(=O)O)C1CC(C)(C)CCC (stereo not drawn) [compound 503],1.4
2,CCCCN(CCCC)C(=O)CN1CC(c2ccc3c(c2)OCO3)C(C(=O)O)C1CCC1OCCO1 (stereo not drawn) [compound 504],3.1
3,CCCCN(CCCC)C(=O)CN1CC(c2ccc3c(c2)OCO3)C(C(=O)O)C1CCC1CCCCO1 (stereo not drawn) [compound 505],2
4,CCCCN(CCCC)C(=O)CN1CC(c2ccc3c(c2)OCO3)C(C(=O)O)C1CC(C)(C)C=C(C)C (stereo not drawn) [compound 506],3.2
5,CCCCN(CCCC)C(=O)CN1CC(c2ccc3c(c2)OCO3)C(C(=O)O)C1CC(C)(C)C1OCCO1 (stereo not drawn) [compound 507],3
6,CCCCN(CCCC)C(=O)CN1CC(c2cc(OC)c3c(c2)OCO3)C(C(=O)O)C1CCC1OCCO1 (stereo not drawn) [compound 509],0.56
7,CCCCN(CCCC)C(=O)CN1CC(c2ccc3c(c2)OCO3)C(C(=O)O)C1COc1ccccc1OC (stereo not drawn) [compound 510],0.5
8,CCCC(CCC)N(C(=O)CN1CC(c2cc(OC)c3c(c2)OCO3)C(C(=O)O)C1CCC1OCCO1)c1ccc(F)c(C)c1 (stereo not drawn) [compound 513],0.3
9,CCCCN(CCCC)C(=O)CN1C[C@H](c2ccc3c(c2)CCO3)[C@@H](C(=O)O)[C@@H]1CC(C)(C)CCC [compound 515],1.6

# Second part, the compound after the results:
row,IC50 [nM],Compound
1,0.71,CCCCN(CCCC)C(=O)CN1CC(c2cc(OC)c3c(c2)OCO3)C(C(=O)O)C1CC(C)(C)C1OCCO1 (stereo not drawn) [compound 516]
2,1,CCCCN(CCCC)C(=O)CN1CC(c2ccc3c(c2)OCO3)C(C(=O)O)C1CCc1ccccc1OC (stereo not drawn) [compound 517]
3,0.42,CCCCN(CCCO)C(=O)CN1CC(c2ccc3c(c2)OCO3)C(C(=O)O)C1c1ccc(OC)cc1 (stereo not drawn) [compound 523]
4,0.79,CCCON(CCC)C(=O)CN1CC(c2ccc3c(c2)OCO3)C(C(=O)O)C1c1ccc(OC)cc1 (stereo not drawn) [compound 524]
5,1.2,CCCCN(C(=O)CN1CC(c2ccc3c(c2)OCO3)C(C(=O)O)C1c1ccc(OC)cc1)c1cccnc1 (stereo not drawn) [compound 531]
6,0.96,CCCCN(CCCC)C(=O)CN1C[C@H](c2ccc3c(c2)OCO3)[C@@H](C(=O)O)[C@@H]1CC(C)(C)CCC [compound 537]

# Target: T2, human ETB receptor (Homo sapiens, UniProt P24530)
# T2 construct: expressed in transfected cells; host or cells: CHO cells, permanently transfected
# T2 sequence (P24530 27-442): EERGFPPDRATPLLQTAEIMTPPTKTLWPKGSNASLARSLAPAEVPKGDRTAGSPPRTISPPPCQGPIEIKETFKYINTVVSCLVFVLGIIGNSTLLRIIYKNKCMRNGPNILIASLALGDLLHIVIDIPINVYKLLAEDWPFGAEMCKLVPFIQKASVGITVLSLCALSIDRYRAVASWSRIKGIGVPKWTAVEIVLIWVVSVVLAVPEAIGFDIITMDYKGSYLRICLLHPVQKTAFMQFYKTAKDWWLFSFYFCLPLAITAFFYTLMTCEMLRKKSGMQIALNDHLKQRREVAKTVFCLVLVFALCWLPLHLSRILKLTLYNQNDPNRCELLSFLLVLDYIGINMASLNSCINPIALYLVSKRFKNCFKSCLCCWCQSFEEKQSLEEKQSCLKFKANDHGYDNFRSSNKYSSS
# Assay: ETA/ETB selectivity: (125I)ET-3 competition binding, CHO cells transfected with human ETB receptor (hET-B)
# Conditions: CHO cells transfected with human ETB receptor; 0.1 nM (125I)ET-3; read-out: hET-B IC50
# Protocol: MMQ cells, porcine cerebellar tissues (known to contain ETB receptors) and chinese hamster ovary cells (CHO) permanently transfected with the human ETA or ETB receptor were homogenized in 25 ml of 10 mM Hepes (pH 7.4) containing 0.25 M sucrose and a protease inhibitor [50 mM EDTA, 0.1 mM PMSF, 5 μg/ml Pepstatin A, and 0.025% Bacitracin] using a micro ultrasonic cell disrupter. The mixture was centrifuged at 1000×g for 10 min. The supernatant was collected and centrifuged at 60,000×g for 60 min. The precipitate was resuspended in 20 mM Tris, pH 7.4 containing protease inhibitor and centrifuged again. The final membrane pellet was resuspended in 20 mM Tris, pH 7.4 containing protease inhibitors and stored at −80° C. until used. Protein content was determined by the Bio-Rad dye-binding protein assay.
# Binding assays were performed in 96-well microtiter plates pretreated with 0.1% BSA. Membranes prepared from cells were diluted 100 fold in Buffer B (20 mM Tris, 100 mM NaCl, 10 mM MgCl2, pH 7.4, with 0.2% BSA, 0.1 mM PMSF, 5 μg/mL Pepstatin A, 0.025% bacitracin, and 50 mM EDTA) to a final concentration of 0.2 mg/mL of protein. In competition binding studies, membranes (0.02 mg) were incubated with 0.1 nM of (^125I)ET-1 (for ETA assay in MMQ or CHO cells transfected with human ETA receptor) or (^125I)ET-3 (for ETB assay in porcine cerebellum or CHO cells transfected with human ETB receptor) in Buffer B (final volume: 0.2 mL) in the presence of increasing concentrations of the test compound for 3 hours at 25° C. After incubation, unbound ligands were separated from bound ligands by a vacuum filtration method using glass-fiber filter strips in PHD cell harvesters (Cambridge Technology, Inc., MA), washing the filter strips three times with saline (1 mL). Nonspecific binding was determined in the presence of 1 μM ET-1. IC50 values are calculated using an average of at least two separate determinations.
row,Compound,IC50 [nM]
1,CCCCN(CCCC)C(=O)CN1CC(c2ccc3c(c2)OCO3)C(C(=O)O)C1CC(C)(C)CCC (stereo not drawn) [compound 503],52000
2,CCCCN(CCCC)C(=O)CN1CC(c2ccc3c(c2)OCO3)C(C(=O)O)C1CCC1OCCO1 (stereo not drawn) [compound 504],> 100000
3,CCCCN(CCCC)C(=O)CN1CC(c2ccc3c(c2)OCO3)C(C(=O)O)C1CCC1CCCCO1 (stereo not drawn) [compound 505],68000
4,CCCCN(CCCC)C(=O)CN1CC(c2ccc3c(c2)OCO3)C(C(=O)O)C1CC(C)(C)C=C(C)C (stereo not drawn) [compound 506],61000
5,CCCCN(CCCC)C(=O)CN1CC(c2ccc3c(c2)OCO3)C(C(=O)O)C1CC(C)(C)C1OCCO1 (stereo not drawn) [compound 507],> 100000
6,CCCCN(CCCC)C(=O)CN1CC(c2cc(OC)c3c(c2)OCO3)C(C(=O)O)C1CCC1OCCO1 (stereo not drawn) [compound 509],23000
7,CCCCN(CCCC)C(=O)CN1CC(c2ccc3c(c2)OCO3)C(C(=O)O)C1COc1ccccc1OC (stereo not drawn) [compound 510],11000
8,CCCC(CCC)N(C(=O)CN1CC(c2cc(OC)c3c(c2)OCO3)C(C(=O)O)C1CCC1OCCO1)c1ccc(F)c(C)c1 (stereo not drawn) [compound 513],14000
9,CCCCN(CCCC)C(=O)CN1C[C@H](c2ccc3c(c2)CCO3)[C@@H](C(=O)O)[C@@H]1CC(C)(C)CCC [compound 515],> 100000

# More lines, now with the values ahead:
row,IC50 [nM],Compound
1,37000,CCCCN(CCCC)C(=O)CN1CC(c2cc(OC)c3c(c2)OCO3)C(C(=O)O)C1CC(C)(C)C1OCCO1 (stereo not drawn) [compound 516]
2,12000,CCCCN(CCCC)C(=O)CN1CC(c2ccc3c(c2)OCO3)C(C(=O)O)C1CCc1ccccc1OC (stereo not drawn) [compound 517]
3,290,CCCCN(CCCO)C(=O)CN1CC(c2ccc3c(c2)OCO3)C(C(=O)O)C1c1ccc(OC)cc1 (stereo not drawn) [compound 523]
4,890,CCCON(CCC)C(=O)CN1CC(c2ccc3c(c2)OCO3)C(C(=O)O)C1c1ccc(OC)cc1 (stereo not drawn) [compound 524]
5,870,CCCCN(C(=O)CN1CC(c2ccc3c(c2)OCO3)C(C(=O)O)C1c1ccc(OC)cc1)c1cccnc1 (stereo not drawn) [compound 531]
6,1900,CCCCN(CCCC)C(=O)CN1C[C@H](c2ccc3c(c2)OCO3)[C@@H](C(=O)O)[C@@H]1CC(C)(C)CCC [compound 537]

# Target: T3, human ETA receptor (Homo sapiens, UniProt P25101)
# T3 construct: expressed in transfected cells; host or cells: CHO cells, permanently transfected
# T3 sequence (P25101 21-427): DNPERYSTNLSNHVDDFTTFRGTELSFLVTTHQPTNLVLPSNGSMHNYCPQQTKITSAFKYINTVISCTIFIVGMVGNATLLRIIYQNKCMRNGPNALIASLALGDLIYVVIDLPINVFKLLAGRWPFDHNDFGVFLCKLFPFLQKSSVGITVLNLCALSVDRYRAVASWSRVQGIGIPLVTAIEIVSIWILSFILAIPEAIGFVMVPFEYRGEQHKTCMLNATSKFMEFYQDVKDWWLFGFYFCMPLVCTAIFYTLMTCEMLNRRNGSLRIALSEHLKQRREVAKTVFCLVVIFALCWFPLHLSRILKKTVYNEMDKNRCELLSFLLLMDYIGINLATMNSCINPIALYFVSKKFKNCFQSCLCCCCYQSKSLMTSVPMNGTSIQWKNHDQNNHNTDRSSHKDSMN
# Assay: ETA/ETB selectivity: (125I)ET-1 competition binding, CHO cells transfected with human ETA receptor (hET-A)
# Conditions: CHO cells transfected with human ETA receptor; 0.1 nM (125I)ET-1; read-out: hET-A IC50
# Protocol: as §1, §2
row,Compound,IC50 [nM]
1,CCCCN(CCCC)C(=O)CN1CC(c2ccc3c(c2)OCO3)C(C(=O)O)C1CC(C)(C)CCC (stereo not drawn) [compound 503],0.92
2,CCCCN(CCCC)C(=O)CN1CC(c2ccc3c(c2)OCO3)C(C(=O)O)C1CCC1OCCO1 (stereo not drawn) [compound 504],4.6
3,CCCCN(CCCC)C(=O)CN1CC(c2ccc3c(c2)OCO3)C(C(=O)O)C1CCC1CCCCO1 (stereo not drawn) [compound 505],5.7
4,CCCCN(CCCC)C(=O)CN1CC(c2ccc3c(c2)OCO3)C(C(=O)O)C1CC(C)(C)C=C(C)C (stereo not drawn) [compound 506],3
5,CCCCN(CCCC)C(=O)CN1CC(c2ccc3c(c2)OCO3)C(C(=O)O)C1CC(C)(C)C1OCCO1 (stereo not drawn) [compound 507],1.63
6,CCCCN(CCCC)C(=O)CN1CC(c2cc(OC)c3c(c2)OCO3)C(C(=O)O)C1CCC1OCCO1 (stereo not drawn) [compound 509],0.51
7,CCCCN(CCCC)C(=O)CN1CC(c2ccc3c(c2)OCO3)C(C(=O)O)C1COc1ccccc1OC (stereo not drawn) [compound 510],1
8,CCCC(CCC)N(C(=O)CN1CC(c2cc(OC)c3c(c2)OCO3)C(C(=O)O)C1CCC1OCCO1)c1ccc(F)c(C)c1 (stereo not drawn) [compound 513],0.36
9,CCCCN(CCCC)C(=O)CN1C[C@H](c2ccc3c(c2)CCO3)[C@@H](C(=O)O)[C@@H]1CC(C)(C)CCC [compound 515],6.7

# More lines, now with the values ahead:
row,IC50 [nM],Compound
1,1.8,CCCCN(CCCC)C(=O)CN1CC(c2cc(OC)c3c(c2)OCO3)C(C(=O)O)C1CC(C)(C)C1OCCO1 (stereo not drawn) [compound 516]
2,0.43,CCCCN(CCCC)C(=O)CN1CC(c2ccc3c(c2)OCO3)C(C(=O)O)C1CCc1ccccc1OC (stereo not drawn) [compound 517]
3,0.33,CCCCN(CCCO)C(=O)CN1CC(c2ccc3c(c2)OCO3)C(C(=O)O)C1c1ccc(OC)cc1 (stereo not drawn) [compound 523]
4,0.82,CCCON(CCC)C(=O)CN1CC(c2ccc3c(c2)OCO3)C(C(=O)O)C1c1ccc(OC)cc1 (stereo not drawn) [compound 524]
5,0.71,CCCCN(C(=O)CN1CC(c2ccc3c(c2)OCO3)C(C(=O)O)C1c1ccc(OC)cc1)c1cccnc1 (stereo not drawn) [compound 531]
6,0.23,CCCCN(CCCC)C(=O)CN1C[C@H](c2ccc3c(c2)OCO3)[C@@H](C(=O)O)[C@@H]1CC(C)(C)CCC [compound 537]
